# Tested on: 253994-281-T-J1-PDC KRAS-mutant spheroids with HUVEC/MSC, viability
# Assay: Anticancer human tumor 253994-281-T-J1-PDC patient-derived colorectal carcinoma cell line growth inhibition [KRAS2]
# Details: for IC50: curve of first compound; for viability, T/C: stronger effect = lower value
# How it was run: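 KRAS-mutant tumor cells were grown as spheroids with HUVEC endothelial cells and human MSCs as stroma. Targeted agents were tested alone and with KRAS pathway inhibitors. Doses started at or near clinical Cmax, or 10 microM, descending half-log.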
# [1] = second compound 0.0316 µM, first compound 0.0316 µM
# [2] = second compound 0.0316 µM, first compound 0.1 µM
# [3] = second compound 0.0316 µM, first compound 0.316 µM
# [4] = second compound 0.0316 µM, first compound 1 µM
# [5] = second compound 0.0316 µM, first compound 3.16 µM
# [6] = second compound 0.0316 µM, first compound 10 µM
# [7] = second compound 0.1 µM, first compound 0.0316 µM
# [8] = second compound 0.1 µM, first compound 0.1 µM
# [9] = second compound 0.1 µM, first compound 0.316 µM
# [10] = second compound 0.1 µM, first compound 1 µM
# [11] = second compound 0.1 µM, first compound 3.16 µM
# [12] = second compound 0.1 µM, first compound 10 µM
# [13] = second compound 0.316 µM, first compound 0.0316 µM
# [14] = second compound 0.316 µM, first compound 0.1 µM
# [15] = second compound 0.316 µM, first compound 0.316 µM
# [16] = second compound 0.316 µM, first compound 1 µM
# [17] = second compound 0.316 µM, first compound 3.16 µM
# [18] = second compound 0.316 µM, first compound 10 µM
# [19] = second compound 1 µM, first compound 0.0316 µM
# [20] = second compound 1 µM, first compound 0.1 µM
# [21] = second compound 1 µM, first compound 0.316 µM
# [22] = second compound 1 µM, first compound 1 µM
# [23] = second compound 1 µM, first compound 3.16 µM
# [24] = second compound 1 µM, first compound 10 µM
# [25] = second compound 3.16 µM, first compound 0.0316 µM
# [26] = second compound 3.16 µM, first compound 0.1 µM
# [27] = second compound 3.16 µM, first compound 0.316 µM
# [28] = second compound 3.16 µM, first compound 1 µM
# [29] = second compound 3.16 µM, first compound 3.16 µM
# [30] = second compound 3.16 µM, first compound 10 µM
# 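Further: spheroids exposed to agents for seven days before readout.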
# 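Wherever viability, T/C is given: percent of DMSO vehicle control viability.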
smiles,measurement,setting,value
COc1cc(Nc2ncc3c(n2)-c2ccc(Cl)cc2C(c2c(F)cccc2OC)=NC3)ccc1C(=O)O + C=CC(=O)N1CCN(c2nc(OCC3CCCN3C)nc3c2CCN(c2cccc4cccc(C)c24)C3)CC1CC#N,IC50,second compound 0.0316 µM,0.0898 µM
same,IC50,second compound 0.1 µM,> 10 µM
same,IC50,second compound 0.316 µM,< 0.0316 µM
same,IC50,second compound 1 µM,> 10 µM
same,IC50,second compound 3.16 µM,< 0.0316 µM
same,"viability, T/C",[1],74.5%
same,"viability, T/C",[2],42.8%
same,"viability, T/C",[3],39%
same,"viability, T/C",[4],48.5%
same,"viability, T/C",[5],50%
same,"viability, T/C",[6],57%
same,"viability, T/C",[7],76.6%
same,"viability, T/C",[8],36.6%
same,"viability, T/C",[9],38.9%
same,"viability, T/C",[10],40.7%
same,"viability, T/C",[11],54.2%
same,"viability, T/C",[12],64.4%
same,"viability, T/C",[13],60.9%
same,"viability, T/C",[14],35.9%
same,"viability, T/C",[15],32.6%
same,"viability, T/C",[16],45.9%
same,"viability, T/C",[17],50.4%
same,"viability, T/C",[18],55.1%
same,"viability, T/C",[19],70.1%
same,"viability, T/C",[20],39.5%
same,"viability, T/C",[21],36%
same,"viability, T/C",[22],40.3%
same,"viability, T/C",[23],60.6%
same,"viability, T/C",[24],58.4%
same,"viability, T/C",[25],17.1%
same,"viability, T/C",[26],8.06%
same,"viability, T/C",[27],5.83%
same,"viability, T/C",[28],20.6%
same,"viability, T/C",[29],25.9%
same,"viability, T/C",[30],25.9%
COc1cc2nccc(Oc3ccc(NC(=O)C4(C(=O)Nc5ccc(F)cc5)CC4)cc3)c2cc1OC + C=CC(=O)N1CCN(c2nc(OCC3CCCN3C)nc3c2CCN(c2cccc4cccc(C)c24)C3)CC1CC#N,IC50,second compound 0.0316 µM,> 10 µM
same,IC50,second compound 0.1 µM,> 10 µM
same,IC50,second compound 0.316 µM,> 10 µM
same,IC50,second compound 1 µM,7.14 µM
same,IC50,second compound 3.16 µM,0.166 µM
same,"viability, T/C",[1],88.8%
same,"viability, T/C",[2],104%
same,"viability, T/C",[3],81.8%
same,"viability, T/C",[4],91.1%
same,"viability, T/C",[5],92.2%
same,"viability, T/C",[6],69.8%
same,"viability, T/C",[7],101%
same,"viability, T/C",[8],101%
same,"viability, T/C",[9],80.4%
same,"viability, T/C",[10],79.5%
same,"viability, T/C",[11],87.6%
same,"viability, T/C",[12],71.1%
same,"viability, T/C",[13],97.8%
same,"viability, T/C",[14],99.5%
same,"viability, T/C",[15],89.6%
same,"viability, T/C",[16],97.6%
same,"viability, T/C",[17],87.5%
same,"viability, T/C",[18],50.3%
same,"viability, T/C",[19],97.1%
same,"viability, T/C",[20],96.5%
same,"viability, T/C",[21],84.8%
same,"viability, T/C",[22],92.2%
same,"viability, T/C",[23],88.9%
same,"viability, T/C",[24],33.9%
same,"viability, T/C",[25],62.7%
same,"viability, T/C",[26],65.5%
same,"viability, T/C",[27],34.6%
same,"viability, T/C",[28],20.4%
same,"viability, T/C",[29],18.9%
same,"viability, T/C",[30],0.21%
O=C(c1cc(Cc2n[nH]c(=O)c3ccccc23)ccc1F)N1CCN(C(=O)C2CC2)CC1 + C=CC(=O)N1CCN(c2nc(OCC3CCCN3C)nc3c2CCN(c2cccc4cccc(C)c24)C3)CC1CC#N,IC50,second compound 0.0316 µM,> 10 µM
same,IC50,second compound 0.1 µM,> 10 µM
same,IC50,second compound 0.316 µM,> 10 µM
same,IC50,second compound 1 µM,> 10 µM
same,IC50,second compound 3.16 µM,< 0.0316 µM
same,"viability, T/C",[1],108%
same,"viability, T/C",[2],100%
same,"viability, T/C",[3],95.8%
same,"viability, T/C",[4],90.5%
same,"viability, T/C",[5],90.5%
same,"viability, T/C",[6],82.8%
same,"viability, T/C",[7],83.1%
same,"viability, T/C",[8],101%
same,"viability, T/C",[9],94.1%
same,"viability, T/C",[10],87.1%
same,"viability, T/C",[11],82.1%
same,"viability, T/C",[12],85.2%
same,"viability, T/C",[13],80.3%
same,"viability, T/C",[14],81%
same,"viability, T/C",[15],83.8%
same,"viability, T/C",[16],73%
same,"viability, T/C",[17],79.6%
same,"viability, T/C",[18],89.6%
same,"viability, T/C",[19],87.4%
same,"viability, T/C",[20],113%
same,"viability, T/C",[21],88.2%
same,"viability, T/C",[22],90.7%
same,"viability, T/C",[23],81.4%
same,"viability, T/C",[24],80.8%
same,"viability, T/C",[25],32.7%
same,"viability, T/C",[26],13%
same,"viability, T/C",[27],15.7%
same,"viability, T/C",[28],24.1%
same,"viability, T/C",[29],21%
same,"viability, T/C",[30],21.1%

# Reference: PubChem BioAssay AID1963874 (Molecular Pharmacology Branch, DTP, NCI, 2024)
